Assay results: PMC6585933 (Clinical Pharmacology in Drug Development, 2018)
“And” between values parts separate entries of the source, which are not always exact repeats. Equal values may be shown once. Read-outs that look alike come from different tables or passages of the source.

Tests used:
[1] = type: in vivo, human; details: for CL/F, arithmetic mean: N = 24; for AUC0‐∞, ratio amenamevir with ritonavir vs amenamevir alone / Cmax, ratio amenamevir with ritonavir vs amenamevir alone: ritonavir 600 mg; for AUC: AUC0‐∞; for AUC / Cmax: LS mean, n = 24; for Tmax: po
[2] = cited from earlier work
[3] = type: in vivo, human; details: for AUC: AUC0–tn; for AUC(0-inf): AUC0–∞
[4] = tested on: acyclovir‐resistant VZV strains; details: in vitro; cited from earlier work
[5] = amenamevir plus ketoconazole vs amenamevir alone; cited from earlier work
OAT1 = details: ^14C‐amenamevir, ref unpublished data held by Maruho; cited from earlier work
OATP1B1 = details: ^14C‐amenamevir, ref unpublished data held by Maruho; cited from earlier work
CYP3A4 = details: human hepatocytes, 1 to 100 μM; ref unpublished data held by Maruho; cited from earlier work
[6] = tested on: human multidrug resistance transporter P‐glycoprotein (P‐gp); details: ^14C‐amenamevir, cells expressing P‐gp; ref unpublished data held by Maruho; cited from earlier work
[7] = type: in vivo, human; details: for CL/F, arithmetic mean / Tmax: plasma; for CL/F, arithmetic mean: n = 24; for Tmax: male, human, po
[8] = single oral dose of 200 mg ^14C‐amenamevir; ref unpublished data held by Maruho; cited from earlier work
[9] = tested on: organic cation uptake transporter‐2; details: ^14C‐amenamevir, organic cation uptake transporter‐2–expressing cells; ref unpublished data held by Maruho; cited from earlier work
[10] = ^14C‐amenamevir in humans; ref unpublished data held by Maruho; cited from earlier work
OATP1B3 = details: ^14C‐amenamevir, ref unpublished data held by Maruho; cited from earlier work
CYP3A4/5 = details: read-out: half maximal inhibitory concentration, very weak or no inhibitory activity, ref unpublished data held by Maruho; cited from earlier work
OAT3 = details: ^14C‐amenamevir, ref unpublished data held by Maruho; cited from earlier work
[11] = tested on: cytochrome P450 (CYP) 3A4/5; details: human liver microsomes; ref unpublished data held by Maruho; cited from earlier work
[12] = saquinavir with a single concomitant dose of 600‐mg ritonavir; cited from earlier work
[13] = midazolam with rifampicin as inducer
[14] = Day 12 midazolam 7.5 mg with amenamevir 400 mg vs Day 1 midazolam alone
[15] = Day 19, midazolam 7.5 mg alone, 7 days after last amenamevir dose, n = 18
[16] = after amenamevir 400 mg once daily for 10 days
[17] = male, human, plasma, oral, arithmetic mean, Day 12, midazolam 7.5 mg with amenamevir 400 mg (last of 10 daily doses), n = 18
[18] = male, human, plasma, oral, geometric mean, Day 12, midazolam 7.5 mg with amenamevir 400 mg (last of 10 daily doses), n = 18
[19] = male, human, plasma, oral, LS mean, Day 12, midazolam 7.5 mg with amenamevir 400 mg (last of 10 daily doses), n = 18
[20] = amenamevir 400 mg with ritonavir 600 mg
[21] = amenamevir 1200 mg with ritonavir 600 mg
[22] = amenamevir 400‐mg or 1200‐mg with single 600‐mg dose of ritonavir
[23] = male, human, plasma, 1200 mg, amenamevir 1200 mg alone
[24] = male, human, plasma, amenamevir 400 mg with ritonavir 600 mg
[25] = male, human, plasma, amenamevir 1200 mg with ritonavir 600 mg

SMILES: CC(C)c1nc(CN(C)C(=O)N[C@H](C(=O)N[C@@H](Cc2ccccc2)C[C@H](O)[C@H](Cc2ccccc2)NC(=O)OCc2cncs2)C(C)C)cs1 [ritonavir, reference compound]
- t1/2, geometric mean ([1]; ritonavir 600 mg single dose with amenamevir 400 mg, n 24): 4.5 h

SMILES: Cc1ncc2n1-c1ccc(Cl)cc1C(c1ccccc1F)=NC2 [midazolam]
- mean elimination half‐life ([2]; midazolam before rifampicin): 3.2 h
- reduction of AUC [2, 13]: 64 fold
- reduction of Cmax [2, 13]: 27 fold
- reduction in plasma concentrations of midazolam ([3]; CYP3A‐inducing effect of amenamevir): 52%
- CL/F, arithmetic mean ([3]; Day 1, midazolam 7.5 mg oral alone (control), plasma, n = 18): 68.5 L/h
- CL/F, arithmetic mean ([3]; Day 12, midazolam 7.5 mg with amenamevir 400 mg (last of 10 daily doses), n = 18): 134.3 L/h
- AUC0–∞, LS mean ratio vs control (90%CI) [3, 14]: ~51%
- Cmax, LS mean ratio vs control (90%CI) [3, 14]: about 68%
- CL/F, arithmetic mean [3, 15]: 63 L/h
- Tmax, median [3, 15]: 0.5 h
- AUC0–∞, LS mean ratio vs control ([3]; Day 19 midazolam alone vs Day 1 midazolam alone): 110%
- CL/F, arithmetic mean ([3]; Day 26, midazolam 7.5 mg alone, 14 days after last amenamevir dose, n = 18): 65.2 L/h
- AUC0–∞, LS mean ratio vs control ([3]; Day 26 midazolam alone vs Day 1 midazolam alone): 108%
- reduction of Cmax of midazolam [3, 16]: about 32%
- reduction of average concentrations (AUC) of midazolam [3, 16]: about 51%
- AUC [3, 17]: 59 ng·h/mL
- AUC [3, 18]: 56.7 ng·h/mL
- AUC(0-inf) [3, 19]: 58 ng·h/mL
- AUC(0-inf) [3, 17]: 60.3 ng·h/mL
- AUC(0-inf) [3, 18]: 58 ng·h/mL
- Cmax [3, 19]: 23 ng/mL
- Cmax [3, 17]: 24.5 ng/mL
- Cmax [3, 18]: 23.4 ng/mL
- half-life ([3]; male, human, plasma, oral, t1/2, arithmetic mean, Day 12, midazolam 7.5 mg with amenamevir 400 mg (last of 10 daily doses), n = 18): 3.7 h
- Tmax ([3]; male, human, plasma, po, 7.5 mg): 0.5 h

SMILES: OCc1ncc2n1-c1ccc(Cl)cc1C(c1ccccc1F)=NC2 [1‐hydroxymidazolam]
- plasma concentrations, influence of coadministration of amenamevir ([3]; metabolite after midazolam 7.5 mg with amenamevir 400 mg): not influenced

SMILES: Cc1cccc(C)c1N(CC(=O)Nc1ccc(-c2ncon2)cc1)C(=O)C1CCS(=O)(=O)CC1 [amenamevir]
- activity against acyclovir‐resistant VZV strains [4]: good activity
- geometric mean ratio for AUCinf (90%CI) [5]: 2.58 (90%CI, 2.32‐2.87)
- geometric mean ratio for Cmax (90%CI) [5]: 1.30 (90%CI, 1.17‐1.45)
- uptake into transporter‐expressing cells (OAT1): no uptake
- uptake into transporter‐expressing cells (OATP1B1): no uptake
- induction of CYP3A4 (CYP3A4): showed the potential to induce CYP3A4
- substrate of the human multidrug resistance P‐gp transporter [6]: is a substrate
- CL/F, arithmetic mean ([7]; amenamevir 400 mg single oral dose alone (control)): 17.7 L/h
- CL/F, arithmetic mean ([7]; amenamevir 1200 mg single oral dose alone (control)): 25.7 L/h
- geometric mean (90%CI) AUC0‐∞ as % of that after amenamevir alone ([7]; amenamevir 1200 mg with cyclosporine 100 mg twice daily): ~79(73, 85) % and ~79%
- Tmax ([7]; 400 mg): 3 h
- Tmax ([7]; 1200 mg): 3 h
- ^14C radioactivity recovered in feces [8]: 74.6%
- CL/F, arithmetic mean ([1]; amenamevir 400 mg single oral dose alone, plasma): 18.3 L/h
- geometric mean AUC0‐∞, times higher than after amenamevir alone [1, 20]: about 2.6 times higher
- geometric mean Cmax, times higher than after amenamevir alone [1, 20]: about 1.4 times higher
- CL/F, arithmetic mean ([1]; amenamevir 400 mg with single dose ritonavir 600 mg): 6.8 L/h
- AUC0‐∞, ratio amenamevir with ritonavir vs amenamevir alone ([1]; amenamevir 400 mg): 260%
- Cmax, ratio amenamevir with ritonavir vs amenamevir alone ([1]; amenamevir 400 mg): 136%
- CL/F, arithmetic mean ([1]; amenamevir 1200 mg single oral dose alone, plasma): 25.7 L/h
- geometric mean AUC0‐∞, times higher than after amenamevir alone [1, 21]: ~3.3 times higher
- geometric mean Cmax, times higher than after amenamevir alone [1, 21]: ~1.6 times higher
- CL/F, arithmetic mean ([1]; amenamevir 1200 mg with single dose ritonavir 600 mg): 7.6 L/h
- AUC0‐∞, ratio amenamevir with ritonavir vs amenamevir alone ([1]; amenamevir 1200 mg): 334%
- Cmax, ratio amenamevir with ritonavir vs amenamevir alone ([1]; amenamevir 1200 mg): 163%
- increase in AUC [1, 22]: > 3 fold
- increase in Cmax [1, 22]: about 1.5 fold
- AUC ([1]; male, human, plasma, 400 mg, amenamevir 400 mg alone): 23200 ng·h/mL
- AUC [1, 23]: 48500 ng·h/mL
- Cmax [1, 23]: 3800 ng/mL
- AUC [1, 24]: 60200 ng·h/mL
- AUC [1, 25]: 162000 ng·h/mL
- Cmax [1, 24]: 2520 ng/mL
- Cmax [1, 25]: 6210 ng/mL
- half-life ([1]; male, human, plasma, geometric mean elimination half‐life, amenamevir alone, irrespective of the dose (400 mg and 1200 mg)): ~7 h
- Cmax ([1]; male, human, plasma, oral, 400 mg, amenamevir 400 mg alone): 1850 ng/mL
- Tmax ([1]; male, human, plasma, 400 mg): 3 h
- Tmax ([1]; male, human, plasma, 1200 mg): 3 h
- treatment‐emergent adverse event headache, frequency ([1]; with 400‐mg amenamevir (ritonavir study group)): 16.7%
- treatment‐emergent adverse event headache, frequency ([1]; with 1200‐mg amenamevir (ritonavir study group)): 29.2%
- uptake into transporter‐expressing cells [9]: no uptake
- plasma protein binding [10]: about 75%
- uptake into transporter‐expressing cells (OATP1B3): no uptake
- IC50 (CYP3A4/5): > 100 µM
- uptake into transporter‐expressing cells (OAT3): no uptake
- role of CYP3A4/5 in the metabolism of amenamevir [11]: main isozymes

SMILES: CC(C)(C)NC(=O)[C@@H]1C[C@@H]2CCCC[C@@H]2CN1C[C@@H](O)[C@H](Cc1ccccc1)NC(=O)[C@H](CC(N)=O)NC(=O)c1ccc2ccccc2n1 [saquinavir]
- increase of plasma concentrations [12]: > 50 fold
